# Reference: patent US12110295B2, “WD40 repeat domain protein 5 (WDR5) degradation/disruption compounds and methods of use” (Icahn School of Medicine at Mount Sinai, priority 2018, dated 2024)
# Molecular target: WDR5 (Homo sapiens, UniProt P61964)
# Assay: Screening of putative WDR5 degraders by Western blot in MV4;11 and/or MIAPACA2 cells
# Type: cell-based
# Design: After WDR5 degrader treatment, cells were collected and lysed; endogenous in cells; host or cells: MV4;11 and/or MIAPACA2
# Details: summary of screening, FIGS. 6-10
# Summary of the method: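 MV4;11 (1×10^6/well) or MIAPACA2 (1×10^5/well) cells treated 18 h with compound at paired doses between 0.1 and 10 μM, DMSO as control. Total lysates immunoblotted for WDR5 with vinculin, tubulin or GAPDH loading controls; fluorescent secondary detection.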
row,SMILES,effective degradation of WDR5 in MV4;11 and/or MIAPACA2 cells
1,"CN1CCN(c2ccc(-c3cccc(CN4CCN(CCNC(=O)CCCCCCCOc5cccc6c5C(=O)N(C5CCC(=O)NC5=O)C6=O)CC4)c3)cc2NC(=O)c2c[nH]c(=O)cc2C(F)(F)F)CC1 (stereo not drawn) [XF056-39, N-(3′-((4-(2-(8-((2-(2,6-dioxopiperidin-3-yl)-1,3-dioxoisoindolin-4-yl)oxy)octanamido)ethyl)piperazin-1-yl)methyl)-4-(4-methylpiperazin-1-yl)-[1,1′-biphenyl]-3-yl)-6-oxo-4-(trifluoromethyl)-1,6-dihydropyridine-3-carboxamide]",able to effectively degrade WDR5
2,"C[C@@H]1CN(c2cc(F)c(-c3cnc(N4CCN(C(=O)CCCCCCNc5cccc6c5C(=O)N(C5CCC(=O)NC5=O)C6=O)CC4)nc3)cc2NC(=O)c2ccc(F)cc2C(F)(F)F)C[C@H](C)N1C (stereo partly drawn) [XF078-121, N-(5-(2-(4-(7-((2-(2,6-dioxopiperidin-3-yl)-1,3-dioxoisoindolin-4-yl)amino)heptanoyl)piperazin-1-yl)pyrimidin-5-yl)-4-fluoro-2-((3S,5R)-3,4,5-trimethylpiperazin-1-yl)phenyl)-4-fluoro-2-(trifluoromethyl)benzamide]",able to effectively degrade WDR5
3,"Cc1ncsc1-c1ccc(CNC(=O)[C@@H]2C[C@@H](O)CN2C(=O)[C@@H](NC(=O)CCOCCOCCOCCC(=O)N2CCN(Cc3cnc(N4CC=C(c5cc(NC(=O)c6c[nH]c(=O)cc6C(F)(F)F)c(N6C[C@@H](C)N(C)[C@@H](C)C6)cc5F)CC4)nc3)CC2)C(C)(C)C)cc1 [XF078-137, N-(4-fluoro-5-(1-(5-((4-((S)-15-((2S,4R)-4-hydroxy-2-((4-(4-methylthiazol-5-yl)benzyl)carbamoyl)pyrrolidine-1-carbonyl)-16,16-dimethyl-13-oxo-4,7,10-trioxa-14-azaheptadecanoyl)piperazin-1-yl)methyl)pyrimidin-2-yl)-1,2,3,6-tetrahydropyridin-4-yl)-2-((3S,5R)-3,4,5-trimethylpiperazin-1-yl)phenyl)-6-oxo-4-(trifluoromethyl)-1,6-dihydropyridine-3-carboxamide]",able to effectively degrade WDR5
4,"Cc1ncsc1-c1ccc(CNC(=O)[C@@H]2C[C@@H](O)CN2C(=O)[C@@H](NC(=O)CCCCCC(=O)N2CCN(c3ncc(-c4cc(NC(=O)c5ccc(F)cc5C(F)(F)F)c(N5C[C@@H](C)N(C)[C@@H](C)C5)cc4F)cn3)CC2)C(C)(C)C)cc1 [XF078-111, (2S,4R)-1-((S)-2-(7-(4-(5-(2-fluoro-5-(4-fluoro-2-(trifluoromethyl)benzamido)-4-((3S,5R)-3,4,5-trimethylpiperazin-1-yl)phenyl)pyrimidin-2-yl)piperazin-1-yl)-7-oxoheptanamido)-3,3-dimethylbutanoyl)-4-hydroxy-N-(4-(4-methylthiazol-5-yl)benzyl)pyrrolidine-2-carboxamide]",able to effectively degrade WDR5
5,"Cc1ncsc1-c1ccc(CNC(=O)[C@@H]2C[C@@H](O)CN2C(=O)[C@@H](NC(=O)CCCCCC(=O)N2CC=C(c3cc(NC(=O)c4c[nH]c(=O)cc4C(F)(F)F)c(N4C[C@@H](C)N(C)[C@@H](C)C4)cc3F)CC2)C(C)(C)C)cc1 [XF078-42, N-(4-fluoro-5-(1-(7-(((S)-1-((2S,4R)-4-hydroxy-2-((4-(4-methylthiazol-5-yl)benzyl)carbamoyl)pyrrolidin-1-yl)-3,3-dimethyl-1-oxobutan-2-yl)amino)-7-oxoheptanoyl)-1,2,3,6-tetrahydropyridin-4-yl)-2-((3S,5R)-3,4,5-trimethylpiperazin-1-yl)phenyl)-6-oxo-4-(trifluoromethyl)-1,6-dihydropyridine-3-carboxamide]",able to effectively degrade WDR5
6,"Cc1ncsc1-c1ccc(CNC(=O)[C@@H]2C[C@@H](O)CN2C(=O)[C@@H](NC(=O)CCCCCCCCCCCCC(=O)NCCN2CCN(Cc3cccc(-c4ccc(N5CCN(C)CC5)c(NC(=O)c5c[nH]c(=O)cc5C(F)(F)F)c4)c3)CC2)C(C)(C)C)cc1 [XF050-162, N^1-((S)-1-((2S,4R)-4-hydroxy-2-((4-(4-methylthiazol-5-yl)benzyl)carbamoyl)pyrrolidin-1-yl)-3,3-dimethyl-1-oxobutan-2-yl)-N^14-(2-(4-((4′-(4-methylpiperazin-1-yl)-3′-(6-oxo-4-(trifluoromethyl)-1,6-dihydropyridine-3-carboxamido)-[1,1′-biphenyl]-3-yl)methyl)piperazin-1-yl)ethyl)tetradecanediamide]",able to effectively degrade WDR5
7,"Cc1ncsc1-c1ccc(CNC(=O)[C@@H]2C[C@@H](O)CN2C(=O)[C@@H](NC(=O)CCCCCC(=O)NCCN2CCN(Cc3ccc(F)c(-c4ccc(N5C[C@@H](C)N(C)[C@@H](C)C5)c(NC(=O)c5c[nH]c(=O)cc5C(F)(F)F)c4)c3)CC2)C(C)(C)C)cc1 [XF078-13, N^1-(2-(4-((6-fluoro-3′-(6-oxo-4-(trifluoromethyl)-1,6-dihydropyridine-3-carboxamido)-4′-((3S,5R)-3,4,5-trimethylpiperazin-1-yl)-[1,1′-biphenyl]-3-yl)methyl)piperazin-1-yl)ethyl)-N^7-((S)-1-((2S,4R)-4-hydroxy-2-((4-(4-methylthiazol-5-yl)benzyl)carbamoyl)pyrrolidin-1-yl)-3,3-dimethyl-1-oxobutan-2-yl)heptanediamide]",able to effectively degrade WDR5
8,"Cc1ncsc1-c1ccc(CNC(=O)[C@@H]2C[C@@H](O)CN2C(=O)[C@@H](NC(=O)CCC(=O)N2CCN(Cc3cnc(N4CC=C(c5cc(NC(=O)c6c[nH]c(=O)cc6C(F)(F)F)c(N6C[C@@H](C)N(C)[C@@H](C)C6)cc5F)CC4)nc3)CC2)C(C)(C)C)cc1 [XF078-141, N-(4-fluoro-5-(1-(5-((4-(4-(((S)-1-((2S,4R)-4-hydroxy-2-((4-(4-methylthiazol-5-yl)benzyl)carbamoyl)pyrrolidin-1-yl)-3,3-dimethyl-1-oxobutan-2-yl)amino)-4-oxobutanoyl)piperazin-1-yl)methyl)pyrimidin-2-yl)-1,2,3,6-tetrahydropyridin-4-yl)-2-((3S,5R)-3,4,5-trimethylpiperazin-1-yl)phenyl)-6-oxo-4-(trifluoromethyl)-1,6-dihydropyridine-3-carboxamide]",able to effectively degrade WDR5
9,"C[C@@H]1CN(c2cc(F)c(-c3cnc(N4CCN(C(=O)CCOCCOCCOCCOCCOCCNc5cccc6c5C(=O)N(C5CCC(=O)NC5=O)C6=O)CC4)nc3)cc2NC(=O)c2ccc(F)cc2C(F)(F)F)C[C@H](C)N1C (stereo partly drawn) [XF078-127, N-(5-(2-(4-(1-((2-(2,6-dioxopiperidin-3-yl)-1,3-dioxoisoindolin-4-yl)amino)-3,6,9,12,15-pentaoxaoctadecan-18-oyl)piperazin-1-yl)pyrimidin-5-yl)-4-fluoro-2-((3S,5R)-3,4,5-trimethylpiperazin-1-yl)phenyl)-4-fluoro-2-(trifluoromethyl)benzamide]",able to effectively degrade WDR5
10,"Cc1ncsc1-c1ccc(CNC(=O)[C@@H]2C[C@@H](O)CN2C(=O)[C@@H](NC(=O)COCCOCCOCCOCCOCC(=O)N2CCN(Cc3cnc(N4CC=C(c5cc(NC(=O)c6c[nH]c(=O)cc6C(F)(F)F)c(N6C[C@@H](C)N(C)[C@@H](C)C6)cc5F)CC4)nc3)CC2)C(C)(C)C)cc1 [XF078-139, N-(4-fluoro-5-(1-(5-((4-((S)-19-((2S,4R)-4-hydroxy-2-((4-(4-methylthiazol-5-yl)benzyl)carbamoyl)pyrrolidine-1-carbonyl)-20,20-dimethyl-17-oxo-3,6,9,12,15-pentaoxa-18-azahenicosanoyl)piperazin-1-yl)methyl)pyrimidin-2-yl)-1,2,3,6-tetrahydropyridin-4-yl)-2-((3S,5R)-3,4,5-trimethylpiperazin-1-yl)phenyl)-6-oxo-4-(trifluoromethyl)-1,6-dihydropyridine-3-carboxamide]",able to effectively degrade WDR5
11,"C[C@@H]1CN(c2cc(F)c(-c3cnc(N4CCN(C(=O)CCOCCOCCOCCNc5cccc6c5C(=O)N(C5CCC(=O)NC5=O)C6=O)CC4)nc3)cc2NC(=O)c2ccc(F)cc2C(F)(F)F)C[C@H](C)N1C (stereo partly drawn) [XF078-125, N-(5-(2-(4-(3-(2-(2-(2-((2-(2,6-dioxopiperidin-3-yl)-1,3-dioxoisoindolin-4-yl)amino)ethoxy)ethoxy)ethoxy)propanoyl)piperazin-1-yl)pyrimidin-5-yl)-4-fluoro-2-((3S,5R)-3,4,5-trimethylpiperazin-1-yl)phenyl)-4-fluoro-2-(trifluoromethyl)benzamide]",able to effectively degrade WDR5
12,"Cc1ncsc1-c1ccc(CNC(=O)[C@@H]2C[C@@H](O)CN2C(=O)[C@@H](NC(=O)CCCCCCCCC(=O)N2CC=C(c3cc(NC(=O)c4c[nH]c(=O)cc4C(F)(F)F)c(N4C[C@@H](C)N(C)[C@@H](C)C4)cc3F)CC2)C(C)(C)C)cc1 [XF078-45, N-(4-fluoro-5-(1-(10-(((S)-1-((2S,4R)-4-hydroxy-2-((4-(4-methylthiazol-5-yl)benzyl)carbamoyl)pyrrolidin-1-yl)-3,3-dimethyl-1-oxobutan-2-yl)amino)-10-oxodecanoyl)-1,2,3,6-tetrahydropyridin-4-yl)-2-((3S,5R)-3,4,5-trimethylpiperazin-1-yl)phenyl)-6-oxo-4-(trifluoromethyl)-1,6-dihydropyridine-3-carboxamide]",able to effectively degrade WDR5
